{
  "source": "paper PMC7705112",
  "about": "“A Novel, Broad-Acting Peptide Inhibitor of Double-Stranded DNA Virus Gene Expression and Replication” (Frontiers in Microbiology, 2020)",
  "key": {"[1]": {"test_system": "VZV transcripts", "assay": "VZV transcripts by real-time PCR", "assay_type": "cell-based, varicella zoster virus", "conditions": "lysates of infected cells, normalized to GAPDH mRNA; Figure S8; read-out: EC50, reduction of VZV transcripts", "experimental": "VZV transcripts were analysed from lysates of infected cells by real-time PCR using ViroReal® VZV (RTGM20V; Ingenetix GmbH, Austria) and normalized to GAPDH mRNA."}, "[2]": {"test_system": "adenovirus type 5", "assay_type": "cell-based", "experimental": "Luciferase from cell lysates was recorded 24 hours after infection. Results shown are luciferase levels expressed as % of control from duplicate wells. Luciferase was detected using Luciferase Assay System as described in Materials & Methods of the main article."}, "[3]": {"test_system": "adenovirus 5", "assay_type": "cell-based"}, "[4]": {"test_system": "HEK293 cells", "assay": "Morphology of HEK293 cells", "assay_type": "cell-based"}, "[5]": {"test_system": "Baculovirus-Luc", "conditions": "24 h, Figure 2A"}, "[6]": {"test_system": "CV-1 cells"}, "[7]": {"test_system": "RSV RNA (nucleocapsid protein gene)", "assay": "RSV RNA by real-time PCR", "assay_type": "cell-based, Respiratory syncytial virus", "experimental": "Lysates from infected cells were examined for the presence of RSV RNA by real-time PCR using ViroReal® RSV (RTGM20V; Ingenetix GmbH, Austria) detecting the nucleocapsid protein gene of RSV and normalized to GAPDH mRNA. Calculated EC50 was 0.8 µM for TAT-I24 with 80% inhibition at the highest concentration (20 µM). Ribavirin was included as control."}, "[8]": {"test_system": "NIH/3T3 cells", "assay": "Cytotoxicity, MultiTox-Glo Multiplex", "assay_type": "cell-based", "conditions": "72 h; Figure 4B, triplicates", "experimental": "(§1) Vero, MRC-5, and CV-1 cells were cultured in Dulbecco’s Modified Eagle Medium (DMEM; ThermoFisher, Waltham, MA, United States) and Jurkat cells were cultured in RPMI 1640 medium containing 10% fetal calf serum, 100 U/ml penicillin, and 0.1 mg/ml streptomycin (ThermoFisher). HEK293 and NIH/3T3 cells were adapted to growth in CO2-independent medium supplemented with 10% fetal calf serum, 2 mM glutamine, and 1% antibiotic-antimycotic (ThermoFisher) and cultivated in a humidified atmosphere at 37°C. […] Viability was analyzed using CellTiter-Glo® 2.0 Assay according to the manufacturer’s protocol (Promega). […] Cytotoxicity was analyzed using MultiTox-Glo Multiplex Cytotoxicity Assay according to the manufacturer’s protocol (Promega)."}, "[9]": {"test_system": "vaccinia virus wild-type (strain Western Reserve)", "conditions": "Figure 9B"}, "[10]": {"test_system": "HEK293 cells", "assay": "Cell viability, CellTiter-Glo 2.0", "assay_type": "cell-based", "conditions": "96 h incubation; Figure 2B, triplicate wells", "experimental": "as §1"}, "[11]": {"test_system": "GAPDH mRNA, MRC-5 cells", "assay": "GAPDH mRNA in cells of the HCMV replicon assay", "conditions": "at the highest concentration of 20 μM; no effect below"}, "[12]": {"test_system": "HSV-1 F, HSV-1 703, HSV-1 601", "assay_type": "cell-based, herpes simplex virus", "conditions": "Figure 8A, triplicate wells"}, "[13]": {"test_system": "HCMV TB40", "assay": "Replicon assay (AAV-GLuc-3B), MRC-5 cells, HCMV", "assay_type": "cell-based, human cytomegalovirus", "conditions": "MRC-5, 3 days; Figure 7A, TAT (48–60)"}, "[14]": {"test_system": "RSV (strain A2)", "assay": "RSV cytopathic effect", "assay_type": "cell-based, Respiratory syncytial virus A", "conditions": "human Hep2 cells, pre-treated, infected 2 hrs at 37°C, 3 days, microscopy", "experimental": "Respiratory syncytial virus (RSV): Human Hep2 cells were pre-treated with peptides and infected with cell-free RSV Stock (strain A2) for 2 hrs at 37°C. Medium was then removed and unabsorbed virus removed by washing. Medium containing peptide dilutions was then added to cells."}, "[15]": {"test_system": "adenovirus 4", "assay": "Replicon assay (AAV-GLuc-3B), A549 cells, adenovirus 4", "assay_type": "cell-based", "conditions": "A549, MOI 1.0, at the concentrations used; Figures 3D, S3A"}, "[16]": {"test_system": "Varicella zoster virus", "assay": "VZV cytopathic effect", "conditions": "human fibroblasts, pre-treated, infected 1 h, three days, microscopy"}, "[17]": {"test_system": "adenovirus 19a/64", "assay": "Replicon assay (AAV-GLuc-3B), A549 cells, adenovirus 19a/64", "assay_type": "cell-based", "conditions": "A549, MOI 1.0, at the concentrations used; Figures 3D, S3A"}, "[18]": {"test_system": "MCMV S-mCherry-SCP", "assay": "MCMV S-mCherry-SCP replication, microscopy", "assay_type": "cell-based, murine cytomegalovirus", "conditions": "NIH/3T3, various concentrations, 72 h; Figure 4C", "experimental": "For analysis of MCMV replication, NIH/3T3 cells were seeded at a density of 2 × 10^4 cells/well of ibiTreat eight-well chambers (ibidi, Germany). On the next day, cells were treated with peptides and infected with murine CMV S-mCherry-SCP ([Bosse et al., 2012]) at a MOI 0.2 for 72 h before fixation with 5% formaldehyde and staining of nuclei with DAPI. Microscopic examination was performed using a Live Cell Video Microscope (Leica Microsystems)."}, "[19]": {"test_system": "TZM-bl reporter cells", "assay": "Reporter gene expression in non-infected TZM-bl cells", "conditions": "48 hours after treatment; Figure S7"}, "[20]": {"test_system": "influenza A PR8", "assay": "Influenza A plaque-formation assay", "conditions": "MDCK cells, three days, at the concentrations used"}, "[21]": {"test_system": "HSV-1 UL30 gene", "assay": "HSV-1 UL30 transcripts by real-time PCR", "conditions": "cells from the replicon assay; Figures 8B, S6C"}, "[22]": {"test_system": "murine CMV (MCMV)", "assay_type": "cell-based, murine cytomegalovirus", "conditions": "NIH/3T3, MOI 0.5, 72 h; Figures 4A, S4A", "experimental": "NIH/3T3 cells were seeded at a density of 2 × 10^4 cells/well of a 96-well plate and allowed to attach overnight. On the next day, medium was removed and replaced by medium containing peptide dilutions. Then, murine CMV (MCMV) expressing firefly luciferase ([Trilling et al., 2011]) was added to the cells at a MOI of 0.5 with aid of centrifugal enhancement at 800 × g for a total of 30 min.\nVirus adsorption was performed by addition of MCMV expressing luciferase at a MOI of 0.5 with centrifugal enhancement at +4°C and further incubation at +4°C for 60 min before removal of unabsorbed virus and three times washing of cells with cold medium. […] After 72 h incubation at 37°C, luciferase levels were determined from cell lysates as described above.\nIn another setting, NIH/3T3 cells were preincubated with TAT-I24 at concentrations of 1 and 10 μM for 1, 3, and 6 h followed by removal of peptide and 3x washing with medium. […] After 72 h, luciferase levels were determined from cell lysates as described above.\nA, NIH/3T3 cells were seeded at a density of 2 x 10^4 cells/well of a 96-well plate and treated on the next day with increasing concentrations of I24 or TAT-I24 and infected with MCMV (MOI = 0.5). After 72 hrs, luciferase was determined from cell lysates. Results shown are luciferase levels expressed as % of control from duplicate wells. […] Plaque formation was determined after 5 days. […]"}},
  "note": "“Also recorded” adds a separate entry of the source. Where two headings read alike, the source gives them in different places. Peptide text beside a SMILES is read from it.",
  "data": [
    {"compound": "CC(C)C[C@H](NC(=O)[C@H](CS)NC(=O)[C@H](CCC(N)=O)NC(=O)[C@@H]1CCCN1C(=O)[C@@H]1CCCN1C(=O)[C@H](CCCNC(=N)N)NC(=O)[C@H](CCCNC(=N)N)NC(=O)[C@H](CCCNC(=N)N)NC(=O)[C@H](CCC(N)=O)NC(=O)[C@H](CCCNC(=N)N)NC(=O)[C@H](CCCNC(=N)N)NC(=O)[C@H](CCCCN)NC(=O)[C@H](CCCCN)NC(=O)[C@H](CCCNC(=N)N)NC(=O)CN)C(=O)N[C@@H](C)C(=O)N[C@@H](Cc1ccccc1)C(=O)N[C@@H](Cc1ccc(O)cc1)C(=O)N[C@@H](C)C(=O)N[C@@H](CS)C(=O)N[C@@H](Cc1ccccc1)C(=O)N[C@@H](CS)C(=O)O", "note": "[TAT-I24] (H-GRKKRRQRRRPPQCLAFYACFC-OH)", "values": [
      {"measurement": "EC50", "setting": "[1]", "result": 3.3, "unit": "µM"},
      {"measurement": "EC50", "setting": "[2]; HEK293, adenovirus-GFP-Luc, 24 h, single value of Figure 3A (duplicate wells), read-out: EC50, inhibition of reporter gene expression", "result": 3.14, "unit": "µM"},
      {"measurement": "EC50", "setting": "[3]; A549, MOI 1.0, Gaussia luciferase after 24 h, Figure 3D, triplicate wells, read-out: EC50, inhibition of replication", "result": 3.25, "unit": "µM"},
      {"measurement": "concentrations at which some morphological changes were observed", "setting": "[4]", "result": "> 10", "unit": "μM"},
      {"measurement": "inhibition of reporter gene expression", "setting": "[5]; HEK293, peptide added together with baculovirus", "result": "> 95", "unit": "%"},
      {"measurement": "EC50", "setting": "[5]; read-out: EC50, inhibition of reporter gene expression, HEK293, MOI 5, peptide added together with baculovirus, duplicate wells", "result": 0.17, "unit": "µM"},
      {"measurement": "effect on mock infected CV-1 cells", "setting": "[6]", "result": "No effect"},
      {"measurement": "effects on CV-1 cell attachment", "setting": "[6]; at higher dosages (20 and 6.6 μM)", "result": "some effects"},
      {"measurement": "inhibition of RSV RNA", "setting": "[7]; at the highest concentration (20 µM)", "result": 80, "unit": "%"},
      {"measurement": "EC50", "setting": "[7]; lysates from infected cells, normalized to GAPDH mRNA, Figure S9", "result": 0.8, "unit": "µM"},
      {"measurement": "cytotoxic effects (viable and dead cells)", "setting": "[8]", "result": "No cytotoxic effects"},
      {"measurement": "EC50", "setting": "[9]; read-out: EC50, inhibition of VACV wt replication, CV-1, MOI 0.2, 1 h preincubation, 24 h, TCID50, two independent experiments", "result": 0.79, "unit": "µM"},
      {"measurement": "effects on HEK293 cell viability", "setting": "[10]", "result": "no effects"},
      {"measurement": "GAPDH mRNA levels", "setting": "[11]", "result": "some reduction"},
      {"measurement": "EC50", "setting": "[12]; HSV1 601 (aciclovir-sensitive isolate)", "result": 0.37, "unit": "µM"},
      {"measurement": "EC50", "setting": "[12]; HSV1 703 (aciclovir-resistant isolate)", "result": 0.91, "unit": "µM"},
      {"measurement": "EC50", "setting": "[12]; HSV-1 F", "result": 1.93, "unit": "µM"}
    ]},
    {"compound": "GRKKRRQRRRPPQ [TAT, HIV-TAT peptide (48–60), …, cell penetrating peptide]", "values": [
      {"measurement": "effect on HCMV replication", "setting": "[13]", "result": "no effect"},
      {"measurement": "effect on reporter gene expression", "setting": "[2]; HEK293, 24 h, Figure 3A, TAT (48–60)", "result": "ineffective"},
      {"measurement": "effect on replication", "setting": "[3]; A549, Figure S3A", "result": "no effect"},
      {"measurement": "CPE", "setting": "[14]", "result": "no inhibition"},
      {"measurement": "effect on replication", "setting": "[15]", "result": "no effect"},
      {"measurement": "CPE", "setting": "[16]", "result": "no inhibition"},
      {"measurement": "effect on replication", "setting": "[17]", "result": "no effect"},
      {"measurement": "cells producing virus particles", "setting": "[18]", "result": "cells producing virus particles were seen"},
      {"measurement": "effect on reporter gene expression in the absence of virus", "setting": "[19]", "result": "No inhibition"},
      {"measurement": "Plaque assay", "setting": "[20]", "result": "no inhibition"},
      {"measurement": "UL30 transcript levels normalized to 18S rRNA", "setting": "[21]", "result": "No effect; also recorded: does not affect"},
      {"measurement": "effect on luciferase expression", "setting": "[22]", "result": "only partially decreased"},
      {"measurement": "cytotoxic effects (viable and dead cells)", "setting": "[8]", "result": "No cytotoxic effects"},
      {"measurement": "effect on VACV wt replication", "setting": "[9]; CV-1", "result": "no effect"},
      {"measurement": "effects on HEK293 cell viability", "setting": "[10]", "result": "no effects"}
    ]}
  ]
}
